Experimental data: patent US4740517A, “Antidiabetic spiro-3-heteroazolidines” (Sanwa Kagaku Kenyusho Co., Ltd., priority 1985, dated 1988)

Columns and labels:
[1] = system: polyol increase in sciatic nerve of galactosemic rats; experiment: reduction or inhibition of polyol (galactitol) increase in sciatic nerve of galactosemic rats; type: in vivo, rat; conditions: for Percent Inhibition (%) as compared to galactitol increase of the control animals: rats, 30% galactose diet, oral 10 mg/kg once a day for 8 days, sciatic nerve removed on 9th day
Method: Some spiro-3-heteroazolidine compounds according to the invention were tested to evaluate their ability on reduction or inhibition of polyol increase in sciatic nerve of galactosemic rats. To the rats, 30% galactose diet was fed and said compounds were orally administered at a dose of 10 mg/kg once a day for a period of 8 days. Control animals were received the galactose diet and were administered no such compound. One day after final administration (on 9th day from the first administration), sciatic nerves were removed for galactitol determination.

aldose reductase enzyme = target: T1, aldose reductase enzyme (Rattus norvegicus, UniProt P07943); experiment: inhibition of aldose reductase enzyme activity using water-soluble extracts of rat lenses (Kador and Sharpless procedure); type: biochemical; conditions: for inhibition at 10 µM: 10^-5 M; for inhibition at 1 µM: 10^-6 M; for inhibition at 0.1 µM: 10^-7 M; for IC50: read-out: IC50 (concentration of inhibitor which gives 50% inhibition)
T1 construct: Using water-soluble extracts of rat lenses; from tissue; host or cells: rat lens, water-soluble extract
Method: Using water-soluble extracts of rat lenses, the inhibitions of these compounds were determined.

[2] = read-out: Percent Inhibition (%) of aldose reductase enzyme activity

## O=C1NC(=O)C2(CC(C(=O)O)Oc3ccc(F)cc32)N1 (stereo not drawn) [Example 1, 6-Fluoro-2,3-dihydro-2',5'-dioxo-spiro[4H-1-benzopyran-4,4'-imidazolidine]-2-carboxylic acid]
[1]; major versus minor diastereoisomer of Example 1
  ability to reduce or inhibit polyol increase in sciatic nerve of galactosemic rats, potency of diastereoisomers: greater than that of the minor diastereoisomer
[1]
  Percent Inhibition (%) as compared to galactitol increase of the control animals: 36%
Aldose reductase enzyme; [2]
  inhibition at 10 µM: 77%
  inhibition at 1 µM: 47%
  inhibition at 0.1 µM: 9%
Aldose reductase enzyme
  IC50: 6000 nM

## NC(=O)C1CC2(NC(=O)NC2=O)c2cc(F)ccc2O1 (stereo not drawn) [Example 2, 6-Fluoro-2,3-dihydro-2',5'-dioxo-spiro[4H-1-benzopyran-4,4'-imidazolidine]-2-carboxamide]
[1]
  Percent Inhibition (%) as compared to galactitol increase of the control animals: 85%
  inhibition of polyol accumulation in sciatic nerve (in words): excellent
Aldose reductase enzyme; [2]
  inhibition at 10 µM: 93%
  inhibition at 1 µM: 85%
  inhibition at 0.1 µM: 15%
Aldose reductase enzyme
  IC50: 400 nM

## CNC(=O)C1CC2(NC(=O)NC2=O)c2cc(F)ccc2O1 (stereo not drawn) [Example 3, 6-Fluoro-2,3-dihydro-N-methyl-2',5'-dioxo-spiro[4H-1-benzopyran-4,4'-imidazolidine]-2-carboxamide]
[1]
  Percent Inhibition (%) as compared to galactitol increase of the control animals: 31%
Aldose reductase enzyme; [2]
  inhibition at 10 µM: 71%
  inhibition at 1 µM: 78%
  inhibition at 0.1 µM: 26%
Aldose reductase enzyme
  IC50: 500 nM

## CN(C)C(=O)C1CC2(NC(=O)NC2=O)c2cc(F)ccc2O1 (stereo not drawn) [Example 5, 6-Fluoro-2,3-dihydro-N,N-dimethyl-2',5'-dioxo-spiro[4H-1-benzopyran-4,4'-imidazolidine]-2-carboxamide]
[1]
  Percent Inhibition (%) as compared to galactitol increase of the control animals: 70%
  inhibition of polyol accumulation in sciatic nerve (in words): excellent
Aldose reductase enzyme; [2]
  inhibition at 10 µM: 61%
  inhibition at 1 µM: 29%
  inhibition at 0.1 µM: 10%
Aldose reductase enzyme
  IC50: 5000 nM

## COc1ccc(NC(=O)C2CC3(NC(=O)NC3=O)c3cc(F)ccc3O2)cc1 (stereo not drawn) [Example 8, 6-Fluoro-2,3-dihydro-N-(4-methoxyphenyl)-2',5'-dioxo-spiro[4H-1-benzopyran-4,4'-imidazolidine]-2-carboxamide]
[1]
  Percent Inhibition (%) as compared to galactitol increase of the control animals: 26%
Aldose reductase enzyme; [2]
  inhibition at 10 µM: 81%
  inhibition at 1 µM: 81%
  inhibition at 0.1 µM: 65%
Aldose reductase enzyme; 10^-8 M, read-out: Percent Inhibition (%) of aldose reductase enzyme activity
  inhibition at 0.01 µM: 14%
Aldose reductase enzyme
  IC50: 70 nM

## O=C1NC(=O)C2(CC(CO)Oc3ccc(F)cc32)N1 (stereo not drawn) [Example 12, 6-Fluoro-2,3-dihydro-2-hydroxymethyl-spiro[4H-1-benzopyran-4,4'-imidazolidine]-2',5'-dione]
[1]
  Percent Inhibition (%) as compared to galactitol increase of the control animals: 40%
Aldose reductase enzyme; [2]
  inhibition at 10 µM: 85%
  inhibition at 1 µM: 28%
  inhibition at 0.1 µM: 13%
Aldose reductase enzyme
  IC50: 4000 nM

## O=C1NC(=O)C2(CC(CCl)Oc3ccc(F)cc32)N1 (stereo not drawn) [Example 13, 2-Chloromethyl-6-fluoro-2,3-dihydro-spiro[4H-1-benzopyran-4,4'-imidazolidine]-2',5'-dione]
[1]
  Percent Inhibition (%) as compared to galactitol increase of the control animals: 88%
Aldose reductase enzyme; [2]
  inhibition at 10 µM: 90%
  inhibition at 1 µM: 51%
  inhibition at 0.1 µM: 3%
Aldose reductase enzyme
  IC50: 1000 nM
